“Also recorded” adds a separate entry of the source. Read-outs that look alike come from different tables or passages of the source.
Experiments:
[1] = system: plateable dog hepatocytes; experiment: Metabolite identification in plateable dog hepatocytes; assay type: in vitro ADME; conditions: 10 μM metoprolol, 72 hours
Procedure: (§1) Cryopreserved rat, dog, monkey and human hepatocytes were thawed by immersing vials in a pre-warmed 37 °C water bath. The cell pellets were then transferred to thawing medium and centrifuged to isolate viable cells. Then, hepatocytes were diluted to 0.7 million cells mL^-1 and seeded into collagen-coated 48-well plates (0.2 mL per well) in duplicate. After 6 hours of attachment, the plating medium was replaced with incubation medium containing 1 % Matrigel™. […] Reactions were quenched at 72 hours with cold acetonitrile containing 0.1 % formic acid, and supernatants were dried under nitrogen gas. The residues were reconstituted in acetonitrile/water (1:9 volume ratio) with 0.1 % formic acid and analysed LC-HRMS. The M7 metabolite was isolated, purified, and concentrated via a mass spectrometry switching valve, followed by sample reconstitution, and subsequent analysis on LC-HRMS.
(§2) The maximum injection time was limited to 50 ms.
(§3) Hepatocyte viability data was expressed as mean±SD.

[2] = system: plateable monkey hepatocytes; experiment: Metabolite identification in plateable monkey hepatocytes; assay type: in vitro ADME; conditions: 10 μM metoprolol, 72 hours
Procedure: as §1, §2, §3

recombinant 2D6 enzymes [3] = molecular target: T1, recombinant 2D6 enzymes (Homo sapiens, UniProt P10635); conditions: 60 min, 1 μM
Procedure: (§5) Human recombinant cytochrome 2D6 enzymes were diluted to 50 pmol mL^-1 in 50 mM phosphate buffer. […] Reactions were initiated by adding NADPH (final concentration: 1 mM), and aliquots were collected at 60 min. Samples were quenched with cold acetonitrile containing 0.1 % formic acid, centrifuged (12,000g, 15 min, 4 °C), then supernatants were dried, reconstituted, centrifuged (12,000g, 15 min, 4 °C), and subjected to an analysis on LC-HRMS..
(§6) Qualitative LC-HRMS analysis was conducted using an Ultimate 3000 pump (ThermoFisher, Germany) and a Q-Exactive Plus spectrometer. The mobile phase A was distilled water containing 0.1 % formic acid and the mobile phase B was acetonitrile containing 0.1 % formic acid. The liquid chromatography (LC) gradient spanned 22 min: 0 to 1.0 minute at 5 % B; 1.0 to 6.0 min, 5 to 15 % B; 6.0 to 14.0 mi, 15 to 25 % B; 14.0 to 16.0 min, 25 to 90 % B; 16.0 to 18.0 min, 90 to 95 % B; 18.0 to 20.0 min, 95 to 5 % B; and 20.0 to 22.0 min at 5 % B (flow rate: 0.3 mL min^-1). MS parameters included: spray voltage: 3.8 kV, capillary temperature: 320 °C, heater temperatures: 350 °C, sheath gas: 2.76 MPa, auxiliary nitrogen pressures: 0.7 MPa and tube lens voltage: 10 eV. The full scan Q1 resolution was set to 70,000, and the automatic gain control (AGC) target value was set to 5×10^5 intensity. The maximum injection time was limited to 50 ms. The dd-MS^2 resolution was set at 17,500, with the AGC target set at 5×10^4. External calibration was performed, yielding a deviation of less than 5.0 ppm. Data was processed using Xcalibur 4.1.31.9 software (ThermoFisher, Germany; https://www.thermofisher.com/order/catalog/product/OPTON-30965).
(§7) LC-HRMS raw data was extracted with Xcalibur, and metabolites were identified using Compound Discoverer 3.0 (ThermoFisher, Germany; https://www.thermofisher.com/order/catalog/product/OPTON-31061) by comparing fragment patterns between parent compounds, metabolites, and standards.

[4] = system: plateable rat hepatocytes; experiment: Metabolite identification in plateable rat hepatocytes; assay type: in vitro ADME; conditions: 10 μM metoprolol, 72 hours
Procedure: as §1, §2, §3

[5] = system: plateable human hepatocytes; experiment: Metabolite identification in plateable human hepatocytes; assay type: in vitro ADME; conditions: 10 μM metoprolol, 72 hours
Procedure: as §1, §2, §3

recombinant 2D6 enzymes [6] = molecular target: T1, recombinant 2D6 enzymes; experiment: Metabolite identification in recombinant cytochrome 2D6 enzymes; conditions: human recombinant 2D6 enzymes, 1 μM metoprolol, 60 min
Procedure: as §5, §6, §7

[7] = system: plateable rat hepatocytes; experiment: Plateable hepatocytes cytotoxicity (CellTiter-Glo ATP assay), rat; assay type: cell-based; conditions: 48 hours; for cytotoxicity in rat hepatocytes (words): 0 to 500 μM
Procedure: (§4) Cryopreserved plateable rat and human hepatocytes were thawed by immersing vials in a pre-warmed 37 °C water bath. The cell pellets were then transferred to thawing medium and centrifuged to isolate viable cells. […] Prior to the measurement, the cell culture plate was equilibrated to ambient temperature. Subsequently, 100 μL of CellTiter-Glo® reagent was dispensed into each well, followed by orbital shaking (5 min) to ensure complete cell lysis. After a 10-minute stabilization at room temperature, luminescence signals were quantified using an envision® multilabel plate reader.

[8] = system: plateable human hepatocytes; experiment: Plateable hepatocytes cytotoxicity (CellTiter-Glo ATP assay), human; assay type: cell-based; conditions: 0 to 500 μM, 48 hours, regardless of ABT co-treatment
Procedure: as §4

[9] = system: plateable human hepatocytes; experiment: Plateable hepatocytes stability (metoprolol depletion); assay type: in vitro ADME
Procedure: Cryopreserved human hepatocytes were thawed by immersing vials in a pre-warmed 37 °C water bath. The cell pellets were then transferred to thawing medium and centrifuged to isolate viable cells. […] Aliquots were collected at 0, 2, 4, 8, 24, 48 and 72 hours, and reactions were quenched with cold acetonitrile/methanol (1:1, v/v) containing labetalol (100 ng mL^-1). After centrifugation (12,000g, 15 min, 4 °C), supernatants were analysed via LC-30AD-API5500 (LC-MS/MS, SCIEX, USA) for semiquantitative assessment. […] Hepatocyte viability data was expressed as mean±SD.

[10] = system: plateable human hepatocytes; conditions: cited from earlier work

T1 sequence (P10635 whole entry): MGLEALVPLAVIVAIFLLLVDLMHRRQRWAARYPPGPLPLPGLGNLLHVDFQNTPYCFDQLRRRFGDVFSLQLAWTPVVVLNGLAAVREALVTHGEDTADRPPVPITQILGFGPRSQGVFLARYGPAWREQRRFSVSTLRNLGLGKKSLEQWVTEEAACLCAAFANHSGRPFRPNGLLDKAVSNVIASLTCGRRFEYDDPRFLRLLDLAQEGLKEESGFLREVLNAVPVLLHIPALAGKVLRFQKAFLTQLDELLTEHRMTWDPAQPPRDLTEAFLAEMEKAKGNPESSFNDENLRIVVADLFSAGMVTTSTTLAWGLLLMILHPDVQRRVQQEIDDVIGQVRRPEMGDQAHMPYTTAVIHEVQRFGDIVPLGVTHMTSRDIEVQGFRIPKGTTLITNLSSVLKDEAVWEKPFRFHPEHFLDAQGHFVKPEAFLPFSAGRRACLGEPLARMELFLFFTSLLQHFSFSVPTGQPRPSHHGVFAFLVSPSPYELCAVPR

Relative peak area, plateable hepatocytes, D [1] [%] | Relative peak area, plateable hepatocytes, Mk [2] [%] | Relative peak area, 2D6, H (recombinant 2D6 enzymes [3]) [%] | Relative peak area, plateable hepatocytes, R [4] [%] | Relative peak area, plateable hepatocytes, H [5] [%] | SMILES | further results
9.4 | 5.6 | 20.1 | 24.4 | 2.7 | COCC(O)c1ccc(OCC(O)CNC(C)C)cc1 (stereo not drawn) [M10, α-hydroxy-metoprolol] | 
20.5 | 0.1 | 22.8 | 3.8 | 6.0 | CC(C)NCC(O)COc1ccc(CCO)cc1 (centres unmarked) [M13, O-desmethyl-metoprolol] | 
5.8 |  | 6.4 | 0.1 |  | COCCc1ccc(OCC(O)CN)cc1 (centres unmarked) [M18] | 

Continued, compound first:

SMILES | Relative peak area, plateable hepatocytes, D [1] [%] | Relative peak area, plateable hepatocytes, Mk [2] [%] | Relative peak area, 2D6, H (recombinant 2D6 enzymes [3]) [%] | Relative peak area, plateable hepatocytes, R [4] [%] | Relative peak area, plateable hepatocytes, H [5] [%] | further results
NCC(O)COc1ccc(CCO)cc1 (centres unmarked) [M3] | 0.7 | 0.1 | 1.6 |  |  | 
CC(C)NCC(O)COc1ccc(C(=O)O)cc1 (centres unmarked) [M9] |  | 0.2 | 1.7 | 0.4 |  | 
CC(C)NCC(O)COc1ccc(CC(=O)O)cc1 (centres unmarked) [M17, metoprolol acid] | 19.9 | 82.6 |  | 57.2 | 14.6 | Relative peak area, 2D6, H (recombinant 2D6 enzymes [6]): 18.3%
COCCc1ccc(OCC(O)CNC(C)C)cc1 (centres unmarked) [metoprolol, Metoprolol] |  |  |  |  |  | cytotoxicity in rat hepatocytes (words) ([7]; without ABT): weak cytotoxicity; also recorded: weak hepatotoxicity; cytotoxicity in rat hepatocytes (words) ([7]; without ABT, listed as Metoprolol): cytotoxic only at a concentration of 500 μM; effect of ABT pre-treatment on metoprolol cytotoxicity ([7]; rat hepatocytes, 500 μM metoprolol with 50 μM ABT): reversed the cytotoxic effect; reductions in cell viability ([7]; rat hepatocytes, 500 μM metoprolol, without ABT): > 30%; cytotoxicity in human hepatocytes (words) [8]: No significant reduction in cell viability; also recorded: no significant hepatotoxicity; cytotoxicity in human hepatocytes (words) ([8]; listed as Metoprolol): no observable cytotoxicity; in vivo CLint ([9]; extrapolated from plateable human hepatocyte CLint): 1.59 ± 0.31 mL/min/kg; in vitro intrinsic clearance (CLint) ([9]; plateable human hepatocytes, 1 μM, 72-hour incubation): 0.56±0.12 μL min^-1 per million cells; in vivo clearance ([10]; correlating with plateable human hepatocyte clearance): 1.4 mL/min/kg; clearance in hepatocytes ([10]; previously reported): 4.28 μL min^-1 per million cells; clearance in plateable human hepatocytes ([10]; previously reported): 2.2 ± 0.7 μL min^-1 per million cells
